Results as given in ChEMBL document CHEMBL1201862, “PubChem BioAssay data set” (2004).
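Assay format: 96-well plates, 48-hour exposure. Here, GI50 denotes the concentration required for 50% inhibition of growth.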 Calls of active or inactive are those of the source. Rule as the data show it: active = GI50 up to about 1.1 µM and inactive = higher.

Key:
Assay in all cases: growth of human tumour cells (NCI), 48 h
[1] = system: NCI-H226
[2] = system: HCT-15
[3] = system: SF-539
[4] = system: CAKI-1
[5] = system: PC-3
[6] = system: MDA-MB-435
[7] = system: EKVX
[8] = system: SK-MEL-2
[9] = system: SK-MEL-28
[10] = system: RPMI-8226
[11] = system: SF-268
[12] = system: SK-OV-3
[13] = system: MDA-MB-231
[14] = system: SR
[15] = system: SNB-75
[16] = system: HL-60
[17] = system: U-251
[18] = system: SF-295
[19] = system: HCT-116
[20] = system: NCI-H522

| Structure (SMILES) | GI50 [1] | GI50 [2] | GI50 [3] | GI50 [4] | GI50 [5] | GI50 [6] | GI50 [7] | GI50 [8] | GI50 [9] | GI50 [10] | GI50 [11] | GI50 [12] | GI50 [13] | GI50 [14] | GI50 [15] | GI50 [16] | GI50 [17] | GI50 [18] | GI50 [19] | GI50 [20] |
| --- | --- | --- | --- | --- | --- | --- | --- | --- | --- | --- | --- | --- | --- | --- | --- | --- | --- | --- | --- | --- |
| COc1ccc2nc3n(c2c1)C(c1c(F)cccc1F)SC3 (configuration not stated) | 19.9 µM (inactive) | 43.2 µM | > 100 µM (inactive) | 94 µM (inactive) | 29.7 µM (inactive) | 39.1 µM (inactive) | 18.9 µM (inactive) | 11.1 µM (inactive) | > 100 µM (inactive) | 29.9 µM (inactive) | 29 µM (inactive) | > 100 µM (inactive) | > 100 µM (inactive) | 37.9 µM (inactive) | 74.6 µM (inactive) | 23.3 µM (inactive) | 51.8 µM (inactive) | 38.6 µM (inactive) | 25.4 µM (inactive) |  |
| C=C1CC=CC(C)(C)C1C/C=C(\C)C(O)CBr (configuration not stated) | 37.5 µM (inactive) | 51.1 µM | 29.9 µM (inactive) | 23.2 µM (inactive) | 47.6 µM (inactive) | 39.9 µM (inactive) | > 100 µM (inactive) | > 100 µM (inactive) | > 100 µM (inactive) | 25.4 µM (inactive) | > 100 µM (inactive) | > 100 µM (inactive) | > 100 µM (inactive) | 28 µM (inactive) |  | 32.4 µM (inactive) | 30.1 µM (inactive) | > 100 µM (inactive) | 18.7 µM (inactive) | 4.2 µM (inactive) |
| Clc1c(Cl)c(Cl)c2nn(C3CCCO3)nc2c1Cl (configuration not stated) | > 100 µM (inactive) |  | 86.9 µM (inactive) | 80.4 µM (inactive) | 82 µM (inactive) | 44.3 µM (inactive) | 19.5 µM (inactive) | 68.1 µM (inactive) |  |  | 46.6 µM (inactive) | > 100 µM (inactive) | 76.7 µM (inactive) | 52.6 µM (inactive) |  |  | 41.4 µM (inactive) | 39.4 µM (inactive) | 50.6 µM (inactive) | 37.3 µM (inactive) |
| C/C(=N\Nc1nc2ccccc2o1)c1ccc2ccccc2n1 |  | 1.08 µM | 7.36 µM (inactive) | 1 µM (active) | 1.83 µM (inactive) | 6.35 µM (inactive) | 0.458 µM (active) | 1.73 µM (inactive) | 3.96 µM (inactive) | 2.69 µM (inactive) | 5.06 µM (inactive) | 23.1 µM (inactive) | 2.98 µM (inactive) | 0.579 µM (active) | 11.6 µM (inactive) | 2.33 µM (inactive) | 3.21 µM (inactive) | 3.72 µM (inactive) | 2.55 µM (inactive) | 1.94 µM (inactive) |
